Experimental data: patent publication US20230174488A1 (priority 2020, published 2023)

Target: SARS-CoV-2 M^PRO (Severe acute respiratory syndrome coronavirus 2, UniProt P0DTD1)
Experiment: biochemical
Type: biochemical
Conditions: In vitro potency data; 30 min pre-incubation, 25 nM M^pro, 25 µM substrate; read-out: IC50

Q: For `O=C(NC1CCC(F)(F)CC1)[C@@H](c1cncnc1)N(C(=O)CCl)c1ccc(-c2ccns2)cc1`, which IC50 is on record?
A: The IC50 was 0.06 µM.

Q: With `O=C(NC1CCC(F)(F)CC1)C(c1ccnnc1)N(C(=O)CCl)c1ccc(-c2cncs2)cc1` (stereo not drawn) [INSCoV-601F, 2-Chloro-N-(2-((4,4-Difluorocyclohexyl)Amino)-2-Oxo-1-(Pvridazin-4-vl)Ethyl)-N-(4-(Thiazol-5-vl)Phenyl)Acetamide] as the molecule, how does the IC50 read?
A: Its IC50 is 0.13 µM.

Q: For `O=C(NC1CCC(F)(F)CC1)[C@@H](c1cncnc1)N(C(=O)[C@H](F)Cl)c1ccc(-c2ccno2)cc1` (single isomer, unassigned) [INSCoV-614A(1B), 2-Chloro-N-(2-((4,4-difluorocyclohexyl)amino)-2-oxo-1-(pyrimidin-5-yl)ethyl)-2-fluoro-N-(4-(isoxazol-5-yl)phenyl)acetamide], which IC50 is on record?
A: Its IC50 is 5.05 µM.

Q: For `CC(C)(C)c1ccc(N(C(=O)CCl)C(C(=O)NC2CCCCC2)c2cncc(C#N)c2)cc1` (stereo not drawn) [INSCoV-539, N-(4-(Tert-Butyl)Phenyl)-2-Chloro-N-(1-(5-Cyanopyridin-3-yl)-2-(Cyclohexylamino)-2-Oxoethyl)Acetamide], which IC50 is on record?
A: The IC50 was 0.8 µM.

Q: With `CC(C)(C)c1ccc(N(C(=O)CCl)[C@](C)(C(=O)NC2CCCCC2)c2cccnc2)cc1` [INSCoV-538A(2)] as the molecule, how does the IC50 read?
A: Its IC50 is 9.6 µM.

Q: With `N#Cc1cc(OC(F)(F)F)ccc1N(C(=O)CCl)[C@H](C(=O)NC1CCCCC1)c1cccnc1` [INSCoV-517(2)] as the molecule, how does the IC50 read?
A: Its IC50 is 1.94 µM.

Q: Which IC50 does the source give for `O=C(NC1CCC(F)(F)C1)C(c1cncnc1)N(C(=O)CCl)c1ccc(-c2cnco2)cc1` (stereo not drawn) [INSCoV-600B, 2-(N-(2-chloroacetyl)-4-oxazol-5-yl-anilino)-N-(3,3-difluorocyclopentyl)-2-pyrimidin-5-yl-acetamide] here?
A: Its IC50 is 0.29 µM.

Q: With `N#Cc1cc(OC(F)(F)F)ccc1N(C(=O)[C@H](F)Cl)[C@@H](C(=O)NC1CCC(F)(F)CC1)c1cncnc1` (single isomer, unassigned) [INSCoV-517C(2), 2-Chloro-N-(2-cyano-4-(trifluoromethoxy)phenyl)-N-(2-((4,4-difluorocyclohexyl)amino)-2-oxo-1-(pyrimidin-5-yl)ethyl)-2-fluoroacetamide] as the molecule, how does the IC50 read?
A: The IC50 was 11.4 µM.

Q: For `O=C(NC1CCCCC1)C(c1cccnc1)N(Cc1ccc(F)cc1)C(=O)CCl` (stereo not drawn) [INSCoV-504], which IC50 is on record?
A: Its IC50 is 16.3 µM.

Q: `O=C(NC1CCC(F)(F)CC1)C(c1cncnc1)N(C(=O)[C@@H]1CO1)c1ccc(-c2cnco2)cc1` (stereo partly drawn) [INSCoV-600R(2)] was tested. Which IC50 did it give?
A: The IC50 was 6.45 µM.

Q: `O=C(NC1CCC(F)(F)CC1)C(c1cnccn1)N(C(=O)CCl)c1ccc(-c2cncs2)cc1` (single isomer, unassigned) [INSCoV-601G(2), 2-Chloro-N-(2-((4,4-difluorocyclohexyl)amino)-2-oxo-1-(pyrazin-2-yl)ethyl)-N-(4-(thiazol-5-yl)phenyl)acetamide] was tested. Which IC50 did it give?
A: The IC50 was 0.27 µM.

Q: `CC(C)(C)c1ccc(N(C(=O)CCl)C(C(=O)NC2CCCCC2)c2cncnc2)cc1` (stereo not drawn) [INSCoV-536, N-(4-(Tert-Butyl)Phenyl)-2-Chloro-N-(2-(Cyclohexylamino)-2-Oxo-1-(Pyrimidin-5-yl)Ethyl)Acetamide] was tested. Which IC50 did it give?
A: Its IC50 is 0.62 µM.

Q: With `O=C(NC1CCC(F)(F)CC1)[C@@H](c1cncnc1)N(C(=O)CCl)c1ccc(-c2ccccc2)cc1` [INSCoV-601L] as the molecule, how does the IC50 read?
A: The IC50 was 0.3 µM.

Q: How did the IC50 turn out when `Cc1cccc(CCN(C(=O)CCl)C(C(=O)NC2CCCCC2)c2cccnc2)c1` (stereo not drawn) [INSCoV-503B] was run?
A: The IC50 was 1 µM.

Q: For `CC(C)(C)c1ccc(N(C(=O)CCl)[C@@](C)(C(=O)NC2CCCCC2)c2cccnc2)cc1` [INSCoV-538A(1)], which IC50 is on record?
A: Its IC50 is 0.23 µM.

Q: `O=C(NC1CCOCC1)C(c1ccnnc1)N(C(=O)CCl)c1ccc(-c2cnco2)cc1` (stereo not drawn) [INSCoV-600A] was tested. Which IC50 did it give?
A: The IC50 was 0.54 µM.

Q: `CNC(=O)c1cc(C)c(NC(=O)C(c2cncnc2)N(C(=O)CCl)c2ccc(-c3cnco3)cc2)c(Cl)c1` (stereo not drawn) [INSCoV-6000, 3-chloro-4-[[2-(N-(2-chloroacetyl)-4-oxazol-5-yl-anilino)-2-pyrimidin-5-yl-acetyl]amino]-N,5-dimethyl-benzamide] was tested. Which IC50 did it give?
A: The IC50 was 1.09 µM.

Q: How did the IC50 turn out when `O=C(NC1CCOCC1)C(c1cccnc1)N(C(=O)CCl)c1ccc(-c2cnco2)cc1` (stereo not drawn) [INSCoV-600A(1), 2-Chloro-N-(4-(Oxazol-5-yl)Phenyl)-N-(2-Oxo-1-(Pyridin-3-yl)-2-((Tetrahydro-2H-Pyran-4-yl)Amino)Ethyl)Acetamide] was run?
A: Its IC50 is 0.84 µM.

Q: `N#CCC(=O)N(c1ccc(-c2cncs2)cc1)[C@H](C(=O)NC1CCC(F)(F)CC1)c1cncnc1` [INSCoV-612] was tested. Which IC50 did it give?
A: The IC50 was 23.2 µM.

Q: For `O=C(NC1CCC(F)(F)CC1)[C@@H](c1cncnc1)N(C(=O)[C@@H]1CO1)c1ccc(-c2cnco2)cc1` [INSCoV-600R(2B)], which IC50 is on record?
A: The IC50 was greater than 25 µM.

Q: With `N#Cc1cc(OC(F)(F)F)ccc1N(C(=O)CCl)C(C(=O)NC1CCC(F)(F)CC1)c1cncnc1` (single isomer, unassigned) [INSCoV-517A(1B), 2-Chloro-N-(2-cyano-4-(trifluoromethoxy)phenyl)-N-(2-((4,4-difluorocyclohexyl)amino)-2-oxo-1-(pyrimidin-5-yl)ethyl)acetamide] as the molecule, how does the IC50 read?
A: The IC50 was 3.25 µM.

Q: For `Cc1ccc(S(=O)(=O)CNC(=O)C(c2cncnc2)N(C(=O)CCl)c2ccc(-c3cnco3)cc2)cc1` (stereo not drawn) [INSCoV-501D], which IC50 is on record?
A: The IC50 was 2.51 µM.

Q: `O=C(NC1CC2(C1)CS(=O)(=O)C2)C(c1cncnc1)N(C(=O)CCl)c1ccc(-c2cnco2)cc1` (stereo not drawn) [INSCoV-600H] was tested. Which IC50 did it give?
A: Its IC50 is 0.66 µM.

Q: `CC(C)(C)c1ccc(N(C(=O)CCl)C(C)(C(=O)NC2CCCCC2)c2cccnc2)cc1` (stereo not drawn) [INSCoV-538A] was tested. Which IC50 did it give?
A: The IC50 was 0.9 µM.

Q: Which IC50 does the source give for `O=C(NC1CCC(F)(F)CC1)C(c1cncnc1)N(C(=O)CCl)c1ccc(-c2ccno2)cc1` (single isomer, unassigned) [INSCoV-600J(2), 2-Chloro-N-(2-((4,4-difluorocyclohexyl)amino)-2-oxo-1-(pyrimidin-5-yl)ethyl)-N-(4-(isoxazol-5-yl)phenyl)acetamide] here?
A: The IC50 was 0.53 µM.

Q: `O=C(NC1CCC(F)(F)CC1)C(c1cncnc1)N(C(=O)[C@H]1CO1)c1ccc(-c2cnco2)cc1` (stereo partly drawn) [INSCoV-600R(1)] was tested. Which IC50 did it give?
A: Its IC50 is 19.9 µM.

Q: For `Cc1ccc(CN(C(=O)CCl)C(C(=O)NC2CCCCC2)c2cccnc2)cc1` (stereo not drawn) [INSCoV-502], which IC50 is on record?
A: Its IC50 is 4.82 µM.

Q: For `CC(C)(C)c1ccc(N(C(=O)CCl)C(C(=O)NC2CCCCC2)c2cccnc2)cc1` (stereo not drawn) [INSCoV-110A, 2-(4-tert-butyl-N-(2-chloroacetyl)anilino)-N-cyclohexyl-2-(3-pyridyl)acetamide], which IC50 is on record?
A: Its IC50 is 1.14 µM.

Q: Which IC50 does the source give for `O=C(NC1CCC(F)(F)CC1)C(c1cncnc1)N(C(=O)CCl)c1ccc(-c2cncs2)cc1` (single isomer, unassigned) [INSCoV-600K(2), 2-Chloro-N-(2-((4,4-difluorocyclohexyl)amino)-2-oxo-1-(pyrimidin-5-yl)ethyl)-N-(4-(thiazol-5-yl)phenyl)acetamide] here?
A: Its IC50 is 0.43 µM.

Q: With `O=C(NC1CC2(COC2)C1)C(c1cncnc1)N(C(=O)CCl)c1ccc(-c2cnco2)cc1` (stereo not drawn) [INSCoV-600G] as the molecule, how does the IC50 read?
A: Its IC50 is 0.99 µM.

Q: With `O=C(NC1CCCCC1)C(c1cccnc1)N(C(=O)CCl)c1ccc(-c2cnco2)cc1` (stereo not drawn) [INSCoV-501] as the molecule, how does the IC50 read?
A: The IC50 was 0.68 µM.

Q: With `O=C(NC1CCC(F)(F)CC1)C(c1cnccn1)N(C(=O)CCl)c1ccc(-c2cncs2)cc1` (single isomer, unassigned) [INSCoV-601G(1), 2-Chloro-N-(2-((4,4-difluorocyclohexyl)amino)-2-oxo-1-(pyrazin-2-yl)ethyl)-N-(4-(thiazol-5-yl)phenyl)acetamide] as the molecule, how does the IC50 read?
A: The IC50 was 0.06 µM.

Q: How did the IC50 turn out when `O=C(NC1CCC(F)(F)CC1)[C@@H](c1cncnc1)N(CCc1cccc(F)c1)C(=O)C1CO1` (stereo partly drawn) [INSCoV-600Q(2)] was run?
A: Its IC50 is 2.22 µM.

Q: How did the IC50 turn out when `CCS(=O)(=O)N1CCC(NC(=O)C(c2cnccn2)N(C(=O)CCl)c2ccc(-c3cnco3)cc2)CC1` (stereo not drawn) [INSCoV-501R(1), 2-Chloro-N-(2-((1-(Ethylsulfonyl)Piperidin-4-yl)Amino)-2-Oxo-1-(Pyrazin-2-yl)Ethyl)-N-(4-(Oxazol-5-yl)Phenyl)Acetamide] was run?
A: Its IC50 is 0.57 µM.

Q: Which IC50 does the source give for `O=C(NC1CC(F)(F)C1)C(c1cncnc1)N(C(=O)CCl)c1ccc(-c2cnco2)cc1` (stereo not drawn) [INSCoV-600D] here?
A: The IC50 was 0.52 µM.

Q: For `CC(C)(C)c1ccc(N(C(=O)CCl)C(C(=O)NC2CCCCC2)c2c[nH]c3ncccc23)cc1` (stereo not drawn) [INSCoV-549], which IC50 is on record?
A: Its IC50 is 2.49 µM.

Q: With `COc1ccccc1CCN(C(=O)CCl)C(C(=O)NC1CCCCC1)c1cccnc1` (stereo not drawn) [INSCoV-560A, 2-Chloro-N-(2-(Cyclohexylamino)-2-Oxo-1-(Pyridin-3-yl)Ethyl)-N-(2-Methoxyphenethyl)Acetamide] as the molecule, how does the IC50 read?
A: The IC50 was 4.34 µM.

Q: Which IC50 does the source give for `O=C(NC1CCS(=O)(=O)CC1)C(c1cnccn1)N(C(=O)CCl)c1ccc(-c2cnco2)cc1` (stereo not drawn) [INSCoV-501M, 2-Chloro-N-(2-((1,1-Dioxidotetrahydro-2H-Thiopyran-4-yl)Amino)-2-Oxo-1-(Pyrazin-2-yl)Ethyl)-N-(4-(Oxazol-5-yl)Phenyl)Acetamide] here?
A: The IC50 was 0.45 µM.

Q: `N#Cc1cc(OC(F)(F)F)ccc1N(C(=O)C(F)Cl)C(C(=O)NC1CCC(F)(F)CC1)c1cncnc1` (single isomer, unassigned) [INSCoV-517C(3), 2-Chloro-N-(2-cyano-4-(trifluoromethoxy)phenyl)-N-(2-((4,4-difluorocyclohexyl)amino)-2-oxo-1-(pyrimidin-5-yl)ethyl)-2-fluoroacetamide] was tested. Which IC50 did it give?
A: The IC50 was 0.07 µM.

Q: With `O=C(NC1CCCCC1)C(c1cccnc1)N(CCc1ccc(Cl)cc1)C(=O)CCl` (stereo not drawn) [INSCoV-503F] as the molecule, how does the IC50 read?
A: The IC50 was 0.94 µM.

Q: `O=C(N[C@H]1CCC(F)(F)C1)C(c1cncnc1)N(C(=O)CCl)c1ccc(-c2cncs2)cc1` (single isomer, unassigned) [INSCoV-601S(1B)] was tested. Which IC50 did it give?
A: The IC50 was 0.98 µM.

Q: Which IC50 does the source give for `N#Cc1cc(OC(F)(F)F)ccc1N(C(=O)CCl)C(C(=O)NC1CCC(F)(F)CC1)c1cncnc1` (single isomer, unassigned) [INSCoV-517A(1A), 2-Chloro-N-(2-cyano-4-(trifluoromethoxy)phenyl)-N-(2-((4,4-difluorocyclohexyl)amino)-2-oxo-1-(pyrimidin-5-yl)ethyl)acetamide] here?
A: The IC50 was 0.03 µM.

Q: How did the IC50 turn out when `CC(C)(C)c1ccc(N(C(=O)CCl)C(C(=O)NC2CCCCC2)c2cnccn2)cc1` (stereo not drawn) [INSCoV-538, N-(4-(Tert-Butyl)Phenyl)-2-Chloro-N-(2-(Cyclohexylamino)-2-Oxo-1-(Pyrazin-2-yl)Ethyl)Acetamide] was run?
A: The IC50 was 0.28 µM.

Q: `CC(C)(C)c1ccc(N(C(=O)CCl)C(C(=O)NC2CCCCC2)c2cccnc2)cc1` (single isomer, unassigned) [INSCoV-110A(1), 2-(4-tert-butyl-N-(2-chloroacetyl)anilino)-N-cyclohexyl-2-(3-pyridyl)acetamide] was tested. Which IC50 did it give?
A: Its IC50 is 1.98 µM.

Q: For `O=C(N[C@@H]1CCOC1)[C@H](c1cncnc1)N(C(=O)CCl)c1ccc(-c2cnco2)cc1` [INSCoV-600C(2A)], which IC50 is on record?
A: Its IC50 is 0.45 µM.
